biological target: T1, Human ENaC δ, β and γ subunit (Homo sapiens, UniProt P51168+P51170+P51172); assay: Measurement of ENaC activation potency (MED) in ENaC-expressing oocyte, Two Electrode Voltage Clamp; type: cell-based; conditions: minimum effective dose at which current started to increase; ENaC-expressing African clawed frog oocyte; smaller MED = higher ENaC activation potency
T1 construct: expressed in transfected cells; host or cells: Xenopus laevis (African clawed frog) oocytes injected with cRNA
T1 sequence (P51172 1-802): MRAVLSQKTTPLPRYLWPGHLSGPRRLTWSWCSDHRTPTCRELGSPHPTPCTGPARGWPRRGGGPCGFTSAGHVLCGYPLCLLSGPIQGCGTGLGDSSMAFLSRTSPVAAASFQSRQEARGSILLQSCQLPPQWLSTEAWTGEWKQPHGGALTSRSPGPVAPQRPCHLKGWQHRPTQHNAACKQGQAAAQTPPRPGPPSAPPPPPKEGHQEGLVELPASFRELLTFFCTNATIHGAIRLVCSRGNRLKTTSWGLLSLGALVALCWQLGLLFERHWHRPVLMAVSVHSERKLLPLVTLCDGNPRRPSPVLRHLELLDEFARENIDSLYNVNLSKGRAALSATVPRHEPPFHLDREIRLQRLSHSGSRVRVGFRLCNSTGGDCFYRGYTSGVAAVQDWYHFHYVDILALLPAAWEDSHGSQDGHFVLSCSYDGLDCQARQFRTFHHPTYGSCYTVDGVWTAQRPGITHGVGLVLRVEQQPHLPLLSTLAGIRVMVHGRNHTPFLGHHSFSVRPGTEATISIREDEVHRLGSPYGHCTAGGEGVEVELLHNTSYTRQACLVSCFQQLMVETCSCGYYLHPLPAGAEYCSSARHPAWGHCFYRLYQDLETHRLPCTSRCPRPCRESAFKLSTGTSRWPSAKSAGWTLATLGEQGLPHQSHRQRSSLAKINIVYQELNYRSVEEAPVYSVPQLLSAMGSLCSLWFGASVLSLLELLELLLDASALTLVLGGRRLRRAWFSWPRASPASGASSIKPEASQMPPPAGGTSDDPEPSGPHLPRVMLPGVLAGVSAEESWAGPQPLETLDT
T1 sequence (P51168 1-640): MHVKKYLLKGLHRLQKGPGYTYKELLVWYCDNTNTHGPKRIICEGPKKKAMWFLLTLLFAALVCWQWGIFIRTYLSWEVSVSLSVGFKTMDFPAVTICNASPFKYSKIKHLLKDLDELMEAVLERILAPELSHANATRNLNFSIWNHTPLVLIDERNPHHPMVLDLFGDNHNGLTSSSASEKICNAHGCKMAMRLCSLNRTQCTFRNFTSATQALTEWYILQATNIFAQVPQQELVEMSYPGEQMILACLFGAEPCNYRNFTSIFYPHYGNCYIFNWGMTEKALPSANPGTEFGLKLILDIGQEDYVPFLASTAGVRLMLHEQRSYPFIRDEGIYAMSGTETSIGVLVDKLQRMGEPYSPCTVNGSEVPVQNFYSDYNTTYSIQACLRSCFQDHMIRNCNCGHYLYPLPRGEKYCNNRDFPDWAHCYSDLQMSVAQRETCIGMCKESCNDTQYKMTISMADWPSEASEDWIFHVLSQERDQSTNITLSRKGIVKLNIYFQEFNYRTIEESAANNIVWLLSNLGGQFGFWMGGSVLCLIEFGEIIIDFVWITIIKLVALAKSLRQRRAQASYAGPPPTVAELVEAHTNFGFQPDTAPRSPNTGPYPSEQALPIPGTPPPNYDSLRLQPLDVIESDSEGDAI
T1 sequence (P51170 1-649): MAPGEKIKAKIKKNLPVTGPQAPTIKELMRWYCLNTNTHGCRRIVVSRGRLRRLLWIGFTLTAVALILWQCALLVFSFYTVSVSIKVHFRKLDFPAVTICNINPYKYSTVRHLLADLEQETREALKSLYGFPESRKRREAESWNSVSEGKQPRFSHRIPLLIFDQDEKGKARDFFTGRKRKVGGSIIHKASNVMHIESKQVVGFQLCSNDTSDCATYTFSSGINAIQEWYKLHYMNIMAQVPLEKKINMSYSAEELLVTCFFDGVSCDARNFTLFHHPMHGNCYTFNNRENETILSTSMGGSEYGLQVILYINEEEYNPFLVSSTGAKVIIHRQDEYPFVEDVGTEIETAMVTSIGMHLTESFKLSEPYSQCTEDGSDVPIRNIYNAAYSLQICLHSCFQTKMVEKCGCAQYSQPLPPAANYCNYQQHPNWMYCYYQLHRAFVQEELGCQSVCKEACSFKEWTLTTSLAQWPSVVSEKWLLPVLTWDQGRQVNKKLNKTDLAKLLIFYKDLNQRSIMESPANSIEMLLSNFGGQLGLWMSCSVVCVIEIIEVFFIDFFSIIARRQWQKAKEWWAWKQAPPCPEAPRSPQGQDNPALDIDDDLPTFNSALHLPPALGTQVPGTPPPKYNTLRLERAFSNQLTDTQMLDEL
How it was run: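 Xenopus oocytes injected with human ENaC δ, β and γ cRNA, cultured 16–72 hr, voltage-clamped 30 mV below resting potential in ND96 (pH 7.6) by two-electrode voltage clamp. Compounds (0.1 nM–300 μM) perfused at rising concentrations every 3 min. MED = lowest dose raising current ≥10%, or raising 5 μM capsazepine-evoked current ≥25%, whichever smaller.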

Point of comparison: `OC[C@@H](NC(=S)NCCc1ccccc1)c1ccccc1` [Example 51], MED 0.3 µM. Against it:
- Oc1cc2c(cc1O)CN(C(=S)NCCc1ccc(Cl)cc1)CCC2 [capsazepine] — 10-fold higher, 3 µM
- C[C@@H](NC(=S)NCCc1ccccc1)c1ccccc1 [Example 11] — the same, 0.3 µM

Reference: US20140004243A1, “SALTY TASTE ENHANCER” (AJINOMOTO CO., INC., priority 2011, published 2014)
